Measured values as given in patent publication US10160812B2, “Bispecific HER2 antibodies” (MedImmune, LLC, priority 2014, dated 2018).

B1: 39S: lead optimized monoclonal antibody derived from the 1.39.1 antibody; VH SEQ ID NO:15, VL SEQ ID NO:16 (antibody, V domains shown)
VH: EVQLVESGGGLVKPGGSLRLSCAASGFTFSSYSMSWVRQAPGKGLEWVSSISSSSSYIYYADSVKGRFTISRDNAKNSLYLQMNSLRAEDTAVYYCARGGDAYNYYYFDYWGQGTLVTVSS
VL: DIVMTQTPLSLSVTPGQPASISCKSSQSVFFRSNNKNILAWYLQKPGQPPQLLIYWASSRESGVPDRFSGSGSGTDFTLKISRVEAEDVGVYYCQQYFGSPFTFGPGTKVDIK

Key:
JIMT-1 model = assay: CBX orthotopic tumor model (T-DM1 non-responder); type: in vivo, Athymic nude mice; conditions: JIMT-1 orthotopic CBX; Bs2-4T at 3 mg/kg
Protocol: All mouse experiments were carried out in compliance with the guidelines published by the Association for Assessment and Accreditation of Laboratory Animal Care (AAALAC) and protocols approved by the MedImmune Institutional Animal Care and Use Committee. Athymic nude mice between 4-8 weeks of age were used in the studies. In subcutaneous CBX models, animals were injected unilaterally on the right flank with tumor cells harvested from culture at a specific passage lot. […] In PDX models, animals are implanted unilaterally on the flank with tumor fragments harvested from host animals each implanted from a specific passage lot. Pre-study tumor volumes were recorded for each experiment beginning approximately one week prior to its estimated start date. […] Animals were dosed once weekly unless otherwise specified with test articles via intravenous or intraperitoneal injection. Animals were observed daily and tumor dimensions and body weights were measured and recorded twice weekly.

RT-112 = assay: In vitro cytotoxic activity (Cell Titer Glo); type: cell-based, human; conditions: RT-112, 3 to 4 days
MDA-MB-361 = assay: In vitro cytotoxic activity (Cell Titer Glo); type: cell-based, human; conditions: MDA-MB-361, 3 to 4 days; read-out: In vitro potency (EC50 in pM)
MCF7-GTU = assay: In vitro cytotoxic activity (Cell Titer Glo); type: cell-based, human; conditions: 3 to 4 days
ZR-75-1 = assay: In vitro cytotoxic activity (Cell Titer Glo); type: cell-based, human; conditions: ZR-75-1, 3 to 4 days
ST455B model = assay: PDX tumor model (triple-negative, HER2 IHC 1+); type: in vivo, Athymic nude mice; conditions: Bs2-4T at 3 mg/kg
Protocol: (§1) All mouse experiments were carried out in compliance with the guidelines published by the Association for Assessment and Accreditation of Laboratory Animal Care (AAALAC) and protocols approved by the MedImmune Institutional Animal Care and Use Committee. Athymic nude mice between 4-8 weeks of age were used in the studies. In subcutaneous CBX models, animals were injected unilaterally on the right flank with tumor cells harvested from culture at a specific passage lot. In orthotopic CBX models, xenografts were established by injecting 5×10^6 cells per mouse (suspended in 50% matrigel) into the mammary fat pad on the right flank of animals. In PDX models, animals are implanted unilaterally on the flank with tumor fragments harvested from host animals each implanted from a specific passage lot. Pre-study tumor volumes were recorded for each experiment beginning approximately one week prior to its estimated start date. When tumors reach the appropriate tumor volume initiation (TVI) range (typically 150-250 mm^3), animals are randomized into treatment and control groups and dosing initiated. […] Animals were observed daily and tumor dimensions and body weights were measured and recorded twice weekly. Tumor volumes are calculated using the following formula: tumor volume=π÷6 (length×width^2). […]

ST996 model = assay: PDX tumor model (triple-negative, HER2 IHC 1+); type: in vivo, Athymic nude mice; conditions: Bs2-2T at 3 mg/kg
Protocol: as §1

MDA-MB-361 model = assay: CBX xenograft tumor model; type: in vivo, Athymic nude mice; conditions: MDA-MB-361 CBX, 3 mg/kg
Protocol: as §1

NCI-N87 = conditions: read-out: In vitro potency (EC50 in pM); NCI-N87, 3 to 4 days
Protocol: A panel of human cancer cell lines expressing various levels of HER2 was used to evaluate the cytotoxic activity of bispecific ADC (Table 5 in Example 1). Briefly, cells were harvested, resuspended, and plated in serum-containing culture media at a density of 5,000 to 20,000 per well (depending on the growth kinetics of each cell line) of 96-well plates in a volume of 100 μL. A 2× concentration of each dose of antibody or ADC to be tested was prepared by diluting the test articles in culture medium. One hundred microliters of each test article was added to cells in triplicate such that the final dose curve ranged from 5 nM down to 0.08 pM in a stepwise 1:4 serial dilution series. The treated cells were incubated at 37° C./5% CO2 for 3 to 4 days, depending on the growth kinetics of each particular cell line. Cell viability was determined using Cell Titer Glo according to manufacturer's instructions. Data are analyzed by the GraphPad Prism software and presented as percent growth inhibition relative to the untreated control. EC50 values were determined using Sigmoidal non-linear regression analysis with GraphPad Prism software and were summarized in Table 6.

SKOV-3 = assay: In vitro cytotoxic activity (Cell Titer Glo); type: cell-based, human; conditions: SKOV-3, 3 to 4 days; read-out: In vitro potency (EC50 in pM)
mouse Her2 = mouse Her2 (Mus musculus, UniProt P70424); assay: Capture ELISA binding specificity / species cross-reactivity; parameters: recombinant extracellular domain proteins: human EGFR, human HER2, human HER3, human HER4, mouse Her2, or cynomolgus monkey Her2; conditions: recombinant extracellular domain protein
Sequence of mouse Her2 (P70424 23-653 limits assumed): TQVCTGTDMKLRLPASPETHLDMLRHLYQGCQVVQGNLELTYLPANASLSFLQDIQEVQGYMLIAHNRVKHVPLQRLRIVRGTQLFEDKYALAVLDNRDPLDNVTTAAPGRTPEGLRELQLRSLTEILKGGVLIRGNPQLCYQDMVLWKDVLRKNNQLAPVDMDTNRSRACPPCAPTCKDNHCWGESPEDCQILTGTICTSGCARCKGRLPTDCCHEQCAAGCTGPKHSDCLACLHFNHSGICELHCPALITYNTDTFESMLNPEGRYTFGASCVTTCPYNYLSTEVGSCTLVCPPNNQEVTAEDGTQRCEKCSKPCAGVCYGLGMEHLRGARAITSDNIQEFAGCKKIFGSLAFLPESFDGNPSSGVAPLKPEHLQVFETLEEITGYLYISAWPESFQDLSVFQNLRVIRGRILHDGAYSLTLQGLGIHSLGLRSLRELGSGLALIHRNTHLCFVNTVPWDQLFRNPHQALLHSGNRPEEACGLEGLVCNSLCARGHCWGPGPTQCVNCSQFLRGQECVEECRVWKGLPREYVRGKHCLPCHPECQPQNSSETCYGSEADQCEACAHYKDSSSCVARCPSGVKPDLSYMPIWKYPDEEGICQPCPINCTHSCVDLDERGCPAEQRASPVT
Description: (§2) To determine whether 39S retains the binding specificity and species cross-reactivity of its parental antibody AZ1.39.1, binding of 39S to the receptors of human ErbB family (EGFR, HER2, HER3, and HER4), the mouse Her2, and the cynomolgus monkey Her2 was examined by capture ELISA. Briefly, 96-well plates were coated with one of the following recombinant extracellular domain proteins: human EGFR, human HER2, human HER3, human HER4, mouse Her2, or cynomolgus monkey Her2. Antibody to be tested was prepared by diluting in a stepwise 1:3 serial dilution ranging from 50 nM down to 0.28 pM and then added to the wells in duplicate. After one hour of incubation, plates were washed, and goat anti-human IgG Fab HRP-conjugated secondary antibody was added to each well and the plates were incubated for 1 hour. The plates were washed and TMB substrate was added and incubated for 5-20 min to allow color development. The stop solution was added to the wells at the end of reaction and the plates were read at 450 nm. Binding signal (absorbance at 450 nm) was plotted against antibody concentration using Prism software.
(§3) Binding specificity and species cross-reactivity of bispecific antibodies to the recombinant extracellular domain protein of human EGFR, human HER2, human HER3, human HER4, mouse Her2, or cynomolgus monkey Her2 were determined by capture ELISA as described in Example 1. […]

HER2 = HER2 (Homo sapiens, UniProt P04626); assay: as above; parameters: recombinant extracellular domain proteins: human EGFR, human HER2, human HER3, human HER4, mouse Her2, or cynomolgus monkey Her2; conditions: recombinant extracellular domain protein
Description: as §2, §3

Molecule | in vivo activity (tumor growth) (JIMT-1 model) | In vitro potency (EC50 in pM) (RT-112) | EC50 (MDA-MB-361) [pM] | In vitro potency (EC50 in pM) (MCF7-GTU) | In vitro potency (EC50 in pM) (ZR-75-1) | in vivo activity (tumor growth) (ST455B model) | in vivo activity (tumor growth) (ST996 model) | in vivo activity (tumor growth) (MDA-MB-361 model) | EC50 (NCI-N87) [pM] | EC50 (SKOV-3) [pM] | binding by capture ELISA (mouse Her2) | binding by capture ELISA (HER2)
T-DM1 [reference compound] | no activity | Inactive | 266 | Inactive | Inactive | no activity | no activity | limited activity | 275 | 116 | – | –
B1 | – | – | – | – | – | – | – | – | – | – | not | can bind
